Laboratory results reported in patent EP0745599A2, “1-(3-Heterocyclylphenyl)-s-triazine-2,4,6-oxo or thiotrione herbicidal agents” (American Cyanamid Company, priority 1995, dated 1996).

Columns and labels:
Format in all cases: in vivo
Settings in all cases: rated four to five weeks after treatment
[1] = test system: GLYCINE MAX(L)MERR. CV. WILLIAMS; experiment: Preemergence herbicidal evaluation, GLXMAW (Soybean, Williams); set-up: key to GLXMAW: visual rating scale 0-9 vs control
Text: (§1) Results of herbicide evaluation are expressed on a rating scale (0-9). The scale is based upon a visual observation of plant stand, vigor, malformation, size, chlorosis and overall plant appearance as compared with a control.
(§2) The preemergence herbicidal activity of the test compounds of the present invention is exemplified by the following tests in which the seeds of a variety of monocotyledonous and dicotyledonous plants are separately mixed with potting soil and planted on top of approximately one inch of soil in separate pint cups. After planting, the cups are sprayed with the selected aqueous acetone solution containing test compound in sufficient quantity to provide the equivalent of about 0.125 to 0.50 kg per hectare of test compound per cup. The treated cups are then placed on greenhouse benches, watered and cared for in accordance with conventional greenhouse procedures. From four to five weeks after treatment, the tests are terminated and each cup is examined and rated according to the rating system provided in Example 42.

[2] = test system: ORYZA SATIVA, L. TEBONNET; experiment: Preemergence herbicidal evaluation, ORYSAT (Rice, Tebonnet); set-up: key to ORYSAT: visual rating scale 0-9 vs control
Text: as §1, §2

[3] = test system: ECHINOCHLOA CRUS-GALLI, (L) BEAU; experiment: Postemergence herbicidal evaluation, ECHCG (Barnyardgrass)
Method: (§3) In the tests, seedling plants are grown in jiffy flats for about two weeks. The test compounds are dispersed in 50/50 acetone/water mixtures containing 0.5% TWEEN®20, a polyoxyethylene sorbitan monolaurate surfactant of Atlas Chemical Industries, in sufficient quantities to provide the equivalent of about 0.125 kg to 0.500 kg per hectare of active compound when applied to the plants through a spray nozzle operating at 40 psi for a predetermined time. After spraying, the plants are placed on greenhouse benches and are cared for in the usual manner, commensurate with conventional greenhouse practices. From four to five weeks after treatment, the seedling plants are examined and rated according to the rating system set forth below. Where more than one test is involved for a given compound, the data are averaged.
as §1

IPOMOEA SPP. = experiment: Preemergence herbicidal evaluation, IPOSS (Morningglory Spp.); set-up: key to IPOSS: visual rating scale 0-9 vs control
Text: as §1, §2

[4] = test system: SETARIA VIRIDIS, (L) BEAU; experiment: Postemergence herbicidal evaluation, SETVI (Foxtail, Green)
Method: as §3, §1

[5] = test system: ABUTILON THEOPHRASTI, MEDIC.; experiment: Preemergence herbicidal evaluation, ABUTH (Velvetleaf); set-up: key to ABUTH: visual rating scale 0-9 vs control
Text: as §1, §2

[6] = test system: AMBROSIA ARTEMISIIFOLIA, L.; experiment: Preemergence herbicidal evaluation, AMBEL (Ragweed, Common); set-up: key to AMBEL: visual rating scale 0-9 vs control
Text: as §1, §2

[7] = test system: TRITICUM AESTIVUM, CV. APOLLO; experiment: Preemergence herbicidal evaluation, TRZAWO (Wheat, Winter, CV. APOLLO); set-up: key to TRZAWO: visual rating scale 0-9 vs control
Text: as §1, §2

ZEA MAYS L. = experiment: Preemergence herbicidal evaluation, ZEAMX (Corn, Field); set-up: key to ZEAMX: visual rating scale 0-9 vs control
Text: as §1, §2

[8] = test system: ECHINOCHLOA CRUS-GALLI, (L) BEAU; experiment: Preemergence herbicidal evaluation, ECHCG (Barnyardgrass); set-up: key to ECHCG: visual rating scale 0-9 vs control
Text: as §1, §2

CHENOPODIUM ALBUM, L. = experiment: Preemergence herbicidal evaluation, CHEAL (Lambsquarters, Common); set-up: key to CHEAL: visual rating scale 0-9 vs control
Text: as §1, §2

[9] = test system: SETARIA VIRIDIS, (L) BEAU; experiment: Preemergence herbicidal evaluation, SETVI (Foxtail, Green); set-up: key to SETVI: visual rating scale 0-9 vs control
Text: as §1, §2

GALIUM APARINE = experiment: Preemergence herbicidal evaluation, GALAP (Galium); set-up: key to GALAP: visual rating scale 0-9 vs control
Text: as §1, §2

CASSIA OBTUSIFOLIA, L. = experiment: Preemergence herbicidal evaluation, CASOB (Sicklepod); set-up: key to CASOB: visual rating scale 0-9 vs control
Text: as §1, §2

`Cn1c(=O)n(CC(=O)O)c(=O)n(-c2cc(N3C(=O)C4=C(CCCC4)C3=O)c(F)cc2Cl)c1=O` [Compound 3, 3-[2-Chloro-5-(1-cyclohexene-1,2-dicarbox-imido)-4-fluorophenyl]tetrahydro-5-methyl-2,4,6-trioxo-s-triazine-1(2H)-acetic acid] was tested, and the “Herbicide rating (0-9) GLXMAW” value ([1]; 0.125 kg/ha) was 0.0, the “Herbicide rating (0-9) GLXMAW” value ([1]; 0.250 kg/ha) was 0.0 and the “Herbicide rating (0-9) GLXMAW” value ([1]; 0.500 kg/ha) was 0.0. The “Herbicide rating (0-9) ORYSAT” value ([2]; 0.125 kg/ha) was 0.0, the “Herbicide rating (0-9) ORYSAT” value ([2]; 0.250 kg/ha) was 0.0 and the “Herbicide rating (0-9) ORYSAT” value ([2]; 0.500 kg/ha) was 0.0. For the same compound, the “Herbicide rating (0-9) ECHCG” value ([3]; 0.125 kg/ha) was 0.0, the “Herbicide rating (0-9) ECHCG” value ([3]; 0.250 kg/ha) was 0.0 and the “Herbicide rating (0-9) ECHCG” value ([3]; 0.500 kg/ha) was 0.0. For the same compound, the “Herbicide rating (0-9) IPOSS” value (IPOMOEA SPP.; 0.125 kg/ha) was 0.0, the “Herbicide rating (0-9) IPOSS” value (IPOMOEA SPP.; 0.250 kg/ha) was 0.0 and the “Herbicide rating (0-9) IPOSS” value (IPOMOEA SPP.; 0.500 kg/ha) was 0.0. The “Herbicide rating (0-9) SETVI” value ([4]; 0.125 kg/ha) was 0.0, the “Herbicide rating (0-9) SETVI” value ([4]; 0.250 kg/ha) was 0.0 and the “Herbicide rating (0-9) SETVI” value ([4]; 0.500 kg/ha) was 0.0. The “Herbicide rating (0-9) ABUTH” value ([5]; 0.125 kg/ha) was 0.0, the “Herbicide rating (0-9) ABUTH” value ([5]; 0.250 kg/ha) was 0.0 and the “Herbicide rating (0-9) ABUTH” value ([5]; 0.500 kg/ha) was 0.0. The “Herbicide rating (0-9) AMBEL” value ([6]; 0.125 kg/ha) was 0.0, the “Herbicide rating (0-9) AMBEL” value ([6]; 0.250 kg/ha) was 0.0 and the “Herbicide rating (0-9) AMBEL” value ([6]; 0.500 kg/ha) was 0.0. The “Herbicide rating (0-9) TRZAWO” value ([7]; 0.125 kg/ha) was 0.0, the “Herbicide rating (0-9) TRZAWO” value ([7]; 0.250 kg/ha) was 0.0 and the “Herbicide rating (0-9) TRZAWO” value ([7]; 0.500 kg/ha) was 0.0. The “Herbicide rating (0-9) ZEAMX” value (ZEA MAYS L.; 0.125 kg/ha) was 0.0, the “Herbicide rating (0-9) ZEAMX” value (ZEA MAYS L.; 0.250 kg/ha) was 0.0 and the “Herbicide rating (0-9) ZEAMX” value (ZEA MAYS L.; 0.500 kg/ha) was 0.0.

Work on `C#CCn1c(=O)n(C)c(=O)n(-c2cc(N3C(=O)C4=C(CCCC4)C3=O)c(F)cc2Cl)c1=O` [Compound 16, N-{4-Chloro-2-fluoro-5-[hexahydro-3-methyl-2,4,6-trioxo-5-(2-propynyl)-s-triazin-1-yl]phenyl}-1-cyclohexene-1,2-dicarboximide] yielded a GLXMAW ([1]; Rate 0.125 kg/ha) of 0.0, a GLXMAW ([1]; Rate 0.250 kg/ha) of 0.0 and a GLXMAW ([1]; Rate 0.500 kg/ha) of 0.0. It also gave an ORYSAT ([2]; Rate 0.125 kg/ha) of 0.0, an ORYSAT ([2]; Rate 0.250 kg/ha) of 0.0 and an ORYSAT ([2]; Rate 0.500 kg/ha) of 0.0. For the same compound, the “Herbicide rating (0-9) ECHCG” value ([3]; 0.125 kg/ha) was 0.0, the “Herbicide rating (0-9) ECHCG” value ([3]; 0.250 kg/ha) was 0.0 and the “Herbicide rating (0-9) ECHCG” value ([3]; 0.500 kg/ha) was 0.0. It also gave an IPOSS (IPOMOEA SPP.; Rate 0.125 kg/ha) of 0.0, an IPOSS (IPOMOEA SPP.; Rate 0.250 kg/ha) of 0.0 and an IPOSS (IPOMOEA SPP.; Rate 0.500 kg/ha) of 0.0. The “Herbicide rating (0-9) SETVI” value ([4]; 0.125 kg/ha) was 0.0, the “Herbicide rating (0-9) SETVI” value ([4]; 0.250 kg/ha) was 0.0 and the “Herbicide rating (0-9) SETVI” value ([4]; 0.500 kg/ha) was 0.0. The ECHCG ([8]; Rate 0.125 kg/ha) was 0.0, the ECHCG ([8]; Rate 0.250 kg/ha) was 0.0 and the ECHCG ([8]; Rate 0.500 kg/ha) was 0.0. The CHEAL (CHENOPODIUM ALBUM, L.; Rate 0.125 kg/ha) was 6.0, the CHEAL (CHENOPODIUM ALBUM, L.; Rate 0.250 kg/ha) was 8.0 and the CHEAL (CHENOPODIUM ALBUM, L.; Rate 0.500 kg/ha) was 9.0. For the same compound, the SETVI ([9]; Rate 0.125 kg/ha) was 0.0, the SETVI ([9]; Rate 0.250 kg/ha) was 0.0 and the SETVI ([9]; Rate 0.500 kg/ha) was 3.0. For the same compound, the ABUTH ([5]; Rate 0.125 kg/ha) was 2.0, the ABUTH ([5]; Rate 0.250 kg/ha) was 6.0 and the ABUTH ([5]; Rate 0.500 kg/ha) was 9.0. The GALAP (GALIUM APARINE; Rate 0.125 kg/ha) was 0.0, the GALAP (GALIUM APARINE; Rate 0.250 kg/ha) was 0.0 and the GALAP (GALIUM APARINE; Rate 0.500 kg/ha) was 4.0. For the same compound, the AMBEL ([6]; Rate 0.125 kg/ha) was 0.0, the AMBEL ([6]; Rate 0.250 kg/ha) was 0.0 and the AMBEL ([6]; Rate 0.500 kg/ha) was 2.0. For the same compound, the TRZAWO ([7]; Rate 0.125 kg/ha) was 0.0, the TRZAWO ([7]; Rate 0.250 kg/ha) was 0.0 and the TRZAWO ([7]; Rate 0.500 kg/ha) was 0.0. The CASOB (CASSIA OBTUSIFOLIA, L.; Rate 0.125 kg/ha) was 0.0, the CASOB (CASSIA OBTUSIFOLIA, L.; Rate 0.250 kg/ha) was 0.0 and the CASOB (CASSIA OBTUSIFOLIA, L.; Rate 0.500 kg/ha) was 0.0. The ZEAMX (ZEA MAYS L.; Rate 0.125 kg/ha) was 0.0, the ZEAMX (ZEA MAYS L.; Rate 0.250 kg/ha) was 1.0 and the ZEAMX (ZEA MAYS L.; Rate 0.500 kg/ha) was 2.0.
